The record followed here is ChEMBL document CHEMBL5352486, “Design, synthesis, in vitro - In vivo biological evaluation of novel thiazolopyrimidine compounds as antileishmanial agent with PTR1 inhibition” (Eur J Med Chem, 2023).

SMILES strings stand for the structures. pIC50: −log10 of the molar value. Converted amounts (≈) assume the structure as drawn.

Data set [1] has as its system Leishmania tropica. The data set can be described thus: Antileishmanial activity against Leishmania tropica MHOM/A7/1974/SAF-K27 incubated for 48 hrs by Neubauer hemocytometer analysis. The class given is functional, organism-based. The conditions noted are these: MHOM/A7/1974/SAF-K27, 48 h.
Data set [2] has as its system Leishmania infantum. The data set can be described thus: Antileishmanial activity against Leishmania infantum MHOM/TN/1980/IPT1 incubated for 48 hrs by Neubauer hemocytometer analysis. The data set is classed as functional, organism-based. Conditions: MHOM/TN/1980/IPT1, 48 h.
The test system of data set [3] is Leishmania tropica. The data set can be described thus: Antileishmanial activity against Leishmania tropica MHOM/A7/1974/SAF-K27 incubated for 48 hrs by XTT method. The class given is functional, organism-based. Conditions: MHOM/A7/1974/SAF-K27, 48 h.
In data set [4] the test system is Leishmania infantum. Description: Antileishmanial activity against Leishmania infantum MHOM/TN/1980/IPT1 incubated for 48 hrs by XTT method. The conditions noted are these: MHOM/TN/1980/IPT1, 48 h. The class given is functional, organism-based. For orientation: Tetrazolium assays rely on reduction of a dye to a coloured formazan, in cell work by metabolically active cells.

In a further data set the target is T1, Pteridine reductase 1 (Leishmania major, UniProt Q01782).
T1 sequence (Q01782 whole entry): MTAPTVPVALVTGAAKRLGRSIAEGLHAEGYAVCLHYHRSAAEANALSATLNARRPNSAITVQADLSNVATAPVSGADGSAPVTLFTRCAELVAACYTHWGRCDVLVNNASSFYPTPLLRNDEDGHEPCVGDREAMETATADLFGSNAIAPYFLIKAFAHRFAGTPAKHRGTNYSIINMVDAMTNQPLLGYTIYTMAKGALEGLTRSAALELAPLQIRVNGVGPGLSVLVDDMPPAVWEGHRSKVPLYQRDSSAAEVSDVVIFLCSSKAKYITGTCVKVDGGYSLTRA
Description: Inhibition of recombinant Leishmania major PTR1 expressed in Escherichia coli BL21 using folic acid as substrate in presence of NADPH.

Another data set concerns the target T2, Dihydrofolate reductase (Homo sapiens, UniProt P00374).
T2 sequence (P00374 whole entry): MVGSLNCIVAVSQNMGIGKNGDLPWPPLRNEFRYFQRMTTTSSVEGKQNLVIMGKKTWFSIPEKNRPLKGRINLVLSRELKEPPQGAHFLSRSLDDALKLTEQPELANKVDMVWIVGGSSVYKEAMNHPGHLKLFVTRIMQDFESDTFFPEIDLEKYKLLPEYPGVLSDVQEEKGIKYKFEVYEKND
Description: Inhibition of human DHFR using dihydrofolate as substrate in presence of NADPH. The data set is classed as toxicity.

Data set [5] deals with DHFR (human) versus PTR1 (Leishmania major). Description: Selectivity index, ratio of IC50 for human DHFR to IC50 for Leishmania major PTR1. The class given is toxicity. The conditions noted are these: human DHFR enzyme and Leishmania major PTR1 enzyme, read-out: Ratio IC50.
Data set [6] can be described thus: (§1) Cytotoxicity against mouse L929 cells by alamar blue method. Conditions: mouse, L929 cells. The class given is toxicity, cell-based.
Another data set has as its system L929. The data set is described as §1. The class given is toxicity, cell-based. The conditions noted are these: l929.
Data set [7] in a line: (§2) Cytotoxicity against mouse RAW264.7 cells by alamar blue method. The class given is toxicity, cell-based. Conditions: mouse, RAW264.7 cells. On the technique in general: Alamar Blue is a resazurin reagent that responds to reducing activity.
Another data set relates to RAW264.7. Described as §2. Conditions: raw264.7. The class given is toxicity, cell-based.

As usually defined, the IC50 is the concentration that gives 50% inhibition. The term pIC50 denotes the IC50 on a negative log10 scale, so that one unit is a factor of ten. With `CN1CCN(c2ncc3nc(NC(=O)c4ccc(Cl)cc4)sc3n2)CC1`, the IC50 in the data set with Leishmania tropica [1] worked out at 15.6 µg/mL (≈ 40.2 µM); with Leishmania infantum [2], 15.7 µg/mL (≈ 40.3 µM); in the data set with Leishmania tropica [3], 15.3 µg/mL (≈ 39.4 µM); in the data set on Leishmania infantum [4], 15.4 µg/mL (≈ 39.7 µM); in data set [6], 25.7 µg/mL (≈ 66.1 µM); in [7], 14.1 µg/mL (≈ 36.3 µM). The pIC50 is 4.55 on Pteridine reductase 1 and 3.57 on Dihydrofolate reductase. In addition, the selectivity ratio in [5] was 9.54. Moreover, the entries for the “log10 IC50 (µg/mL)” value in the data set with L929 and in the data set with RAW264.7 were 1.41 and 1.15, respectively.
As to `O=C(Nc1nc2cnc(N3CCCC3)nc2s1)c1ccc(Cl)c([N+](=O)[O-])c1`, the IC50 with Leishmania tropica [1] stood at 10.2 µg/mL (≈ 25.1 µM); in the data set on Leishmania infantum [2], 12.3 µg/mL (≈ 30.3 µM); with Leishmania tropica [3] it was 10.6 µg/mL (≈ 26.2 µM); in the data set with Leishmania infantum [4], 12.7 µg/mL (≈ 31.3 µM); in [6] it was 24.4 µg/mL (≈ 60.2 µM); in data set [7], 8.98 µg/mL (≈ 22.2 µM). Also, the pIC50 was 4.83 at Pteridine reductase 1 and 3.43 at Dihydrofolate reductase. In addition, the selectivity ratio in data set [5] was 25.1. Further, the entries for the “log10 IC50 (µg/mL)” value in the data set with L929 and in the data set on RAW264.7 were 1.39 and 0.95, respectively.
